Assays:
[1] = tested on: trans-TM transport of phage expressing peptide TMT-3; assay: Inhibitor studies: effect on trans-TM transport of phage expressing peptide TMT-3; format: in vivo, Sprague Dawley rats; settings: 1 h, n = 6 ears; for Effect on trans-TM phage transport: NTHi-infected rats; for Reduction of trans-TM transport: ME contents titered
Method: Figure 5 illustrates the results of inhibitor studies.
The MEs of rats were infected with NTHi as above. 48 h later, the external ears of six anesthetized rats were injected with 50 µl of saline containing 10^10 phage expressing TM-3 peptide and up to four inhibitors. Inhibitors were applied at 5–10 times the published IC50 (see Table 1). For any combination of that affected trans-TM transport, Inhibitors were then tested individually to identify the active agent(s). Inhibitors included bafilomycin A (2 µM), brefeldin A (1 uM), carrageenan (200 mg/ml), chlorpromazine (300 µM), Dynasore (500 µM), Endosidin-2 (1 mM), Exo-1 (200 µM), Filipin (50 µg/ml), genistein (100 µM), N-ethylmaleimide (50 µM), nocodazole (300 µM), PitStop-2 (100 µM), Retro-2 (100 µM) and wortmannin (100 µM). […] Six external ears were injected with 10^9 wild-type (WT) phage without a peptide, as negative controls for phage contamination. After one hour, the external ears were extensive rinsed to remove all phage, the MEs were opened and the contents titered to quantify bacteriophage entry. Six replicates were averaged to get the mean and The standard error was calculated by dividing the standard deviation by the sample size's square root (n = 6).

[2] = tested on: tympanic membrane (TM); settings: purified phage applied to the TM of previously infected rats for one hour; ME contents titered; mean of n = 6; cited from earlier work
Excerpt: Table 1 Sequences and ME recovery of trans-TM 12-mer peptide phage identified by two screening methods (data from Kurabi et al.[19]). Each purified phage was applied to the TM of previously infected rats for one hour (n = 6), and the ME contents then tittered and the number of phage particles recovered were averaged (mean of n = 6). Phage recovery was grouped into transport categories, which were | column: Mean recovery from ME (PFUs)

[3] = inhibitor 100 µM with TMT-3 phage
[4] = inhibitor 100 µM with 10^10 TMT-3 phage in 50 µl saline in external ear of NTHi-infected rats (48 h)
[5] = inhibitor 300 µM with TMT-3 phage

With `CO/C1=C\C(C)=C\[C@@H](C)[C@@H](O)[C@@H](C)C/C(C)=C/C=C/[C@H](OC)[C@@H]([C@@H](C)[C@@H](O)[C@H](C)[C@@]2(O)C[C@@H](O)[C@H](C)[C@@H](C(C)C)O2)OC1=O` [Bafilomycin] the “Effect on trans-TM phage transport” value ([1]; inhibitor 2 µM with TMT-3 phage) was “no effect”.

In the case of `O=C(N/N=C/c1ccc(O)c(O)c1)c1cc2ccccc2cc1O` [Dynasore], the “Effect on trans-TM phage transport” value ([1]; inhibitor 500 µM with TMT-3 phage) is reported as “no effect”.

For `COc1cc(/C=N/NC(=O)c2cccc(F)c2)cc(I)c1O` [Endosidin-2], the “Reduction of trans-TM transport” value ([1]; inhibitor 1 mM with 10^10 TMT-3 phage in 50 µl saline in external ear of NTHi-infected rats (48 h)) was ~ 80% and the “Effect on trans-TM phage transport” value ([1]; inhibitor 1 mM with TMT-3 phage) was “significantly reduced transport”.

For `COC(=O)c1ccccc1NC(=O)c1ccc(F)cc1` [Exo-1], the “Reduction of trans-TM transport” value ([1]; inhibitor 200 µM with 10^10 TMT-3 phage in 50 µl saline in external ear of NTHi-infected rats (48 h)) was 40% and the “Effect on trans-TM phage transport” value ([1]; inhibitor 200 µM with TMT-3 phage) was “significantly reduced transport”.

In the case of `CCCCC[C@@H](O)[C@H]1C(=O)O[C@H](C)[C@@H](O)/C=C/C=C/C=C/C=C/C=C(\C)[C@@H](O)C[C@H](O)C[C@H](O)C[C@H](O)C[C@H](O)C[C@H](O)C[C@@H]1O` [Filipin], the “Effect on trans-TM phage transport” value ([1]; inhibitor 50 µg/ml with TMT-3 phage) is reported as “no effect”.

With `CCN1C(=O)C=CC1=O` [N-ethymaleimide] the “Effect on trans-TM phage transport” value ([1]; inhibitor 50 µM with TMT-3 phage) was “no effect”.

With `O=C1NC(=NS(=O)(=O)c2cccc3ccccc23)S/C1=C\c1ccc(Br)cc1` [Pitstop-2] the “Effect on trans-TM phage transport” value [1, 3] was “Neither Pitstop-2, as illustrated in Fig. 5, nor chlorpromazine had any effect”.

With `Cc1ccc(C=Nc2ccccc2C(=O)Nc2ccccc2)s1` [Retro-2] the “Reduction of trans-TM transport” value [1, 4] was “approximately 90%” and the “Effect on trans-TM phage transport” value [1, 3] was “significantly reduced transport”.

In the case of `CN(C)CCCN1c2ccccc2Sc2ccc(Cl)cc21` [chlorpromazine], the “Effect on trans-TM phage transport” value [1, 5] is reported as “Neither Pitstop-2, as illustrated in Fig. 5, nor chlorpromazine had any effect”.

In the case of `O=c1c(-c2ccc(O)cc2)coc2cc(O)cc(O)c12` [genistein], the “Effect on trans-TM phage transport” value [1, 3] is reported as “no effect”.

For `COC(=O)Nc1nc2ccc(C(=O)c3cccs3)cc2[nH]1` [nocodazole], the “Effect on trans-TM phage transport” value [1, 5] was “no effect”.

In the case of `COC[C@H]1OC(=O)c2coc3c2[C@@]1(C)C1=C(C3=O)[C@@H]2CCC(=O)[C@@]2(C)C[C@H]1OC(C)=O` [wortmannin], the “Reduction of trans-TM transport” value [1, 4] is reported as “approximately 90%” and the “Effect on trans-TM phage transport” value [1, 3] is reported as “significantly reduced transport”.

For “ALWPPNLHAWVP [BPT-2, trans-TM 12-mer peptide expressed on M13 bacteriophage, fused through the C-terminus to the pIII protein]”, the “Mean recovery from ME (PFUs)” value [2] is listed as 210 PFUs.

For “DVGAGRWFSDNG [TMT-4, trans-TM 12-mer peptide expressed on M13 bacteriophage, fused through the C-terminus to the pIII protein]”, the “Mean recovery from ME (PFUs)” value [2] is given as 5430 PFUs.

For “SADSTKTTHLTL [TMT-3, trans-TM 12-mer peptide expressed on M13 bacteriophage, fused through the C-terminus to the pIII protein]”, the “Mean recovery from ME (PFUs)” value [2] is listed as 12,030 PFUs.

In the case of “SDDSRPIAQFAI [TMT-5, trans-TM 12-mer peptide expressed on M13 bacteriophage, fused through the C-terminus to the pIII protein]”, the “Mean recovery from ME (PFUs)” value [2] is listed as 3017 PFUs.

For “SPPGKFLESLRS [TMT-1, trans-TM 12-mer peptide expressed on M13 bacteriophage, fused through the C-terminus to the pIII protein]”, the “Mean recovery from ME (PFUs)” value [2] is listed as 610 PFUs.

For “TFNPPPPQMPST [BPT-4, trans-TM 12-mer peptide expressed on M13 bacteriophage, fused through the C-terminus to the pIII protein]”, the “Mean recovery from ME (PFUs)” value [2] is given as 9040 PFUs.

For “THPSTKVPGTPA [BPT-3, trans-TM 12-mer peptide expressed on M13 bacteriophage, fused through the C-terminus to the pIII protein]”, the “Mean recovery from ME (PFUs)” value [2] is listed as 13,050 PFUs.

For “TLSPKMPGGGYW [TMT-2, trans-TM 12-mer peptide expressed on M13 bacteriophage, fused through the C-terminus to the pIII protein]”, the “Mean recovery from ME (PFUs)” value [2] is given as 3210 PFUs.

For “TPMVERNYNAAD [BPT-1, trans-TM 12-mer peptide expressed on M13 bacteriophage, fused through the C-terminus to the pIII protein]”, the “Mean recovery from ME (PFUs)” value [2] is given as 95 PFUs.

In the case of carrageenan, the “Effect on trans-TM phage transport” value ([1]; inhibitor 200 mg/ml with TMT-3 phage) is reported as “no effect”.
